Data taken from PMC8765435, “In Vitro Antimalarial Activity of Inhibitors of the Human GTPase Rac1” (Antimicrobial Agents and Chemotherapy, 2022).

Columns and labels:
[1] = tested on: P. falciparum asexual parasites, chloroquine-resistant W2 strain; test: Drug susceptibility assay (pLDH), asexual parasites, W2 strain; type: cell-based, Plasmodium falciparum; conditions: Plasmodium falciparum, W2, chloroquine-resistant W2 strain; read-out: IC50, W2 strain
Method: (§1) Chloroquine (CQ)-sensitive (D10, wild-type 3D7, or transgenic 3D7elo1-pfs16-CBG99) and CQ-resistant (W2) strains of P. falciparum were cultured as described previously ([58]), with slight modifications, as detailed in the supplemental material.
(§2) Asexual parasite growth was determined spectrophotometrically (optical density at 650 nm [OD650]) by measuring the activity of parasite lactate dehydrogenase (pLDH), according to a modified version of the method of Makler et al. ([59]). Gametocyte viability was measured by a luminescence method described previously ([60]). Details for the two methods are reported in the supplemental material. From either the OD or ALU (arbitrary luminescence units), the percentages of viability were calculated according to the formula 100 × (treated sample signal − blank signal)/(untreated control signal − blank signal). The blank for the pLDH assay was uninfected RBCs at the same hematocrit as that of parasitized RBCs, and the blank for the luminescence assay was parasites treated with a high dose of methylene blue. […]
The CQ-sensitive (D10) and the CQ-resistant (W2) strains were maintained at 5% hematocrit […]
supplemented with 1% AlbuMaxII (lipid-rich bovine serum albumin) (Invitrogen), 0.01% hypoxantine (Sigma), 20mM Hepes (EuroClone), 2 mM glutamine (EuroClone). […]
In vitro P. falciparum drug susceptibility assay […]
plate were transferred to a plate containing 100µl of Malstat reagent (0.11% [vol/vol] Triton- […]
dinucleotide [APAD] [Sigma-Aldrich], adjusted to pH 9 with 1 M HCl) and 25 µl of PES/NBT […]
pLDHassay. The plate was read at a wavelength of 650 nm using a microplate reader, Synergy4 […]
Uninfected RBC at the same HCT than parasites were used as blank. […]

Rac1 [2] = molecular target: T1, Rac1 (Homo sapiens, UniProt P63000); test: Immunofluorescence assay with anti-Rac1/GTP on parasitophorous vacuole; type: cell-based; set-up: endogenous in cells; host or cells: erythrocytes from whole blood of 7 donors; conditions: 1.4 μM, 20 h
Method: We thus decided to investigate the Rac1 activation state in infected erythrocytes treated with EHop-016 and in the untreated control. To do this, we applied a methodology that allows us to specifically measure Rac1 activation levels on the parasitophorous vacuole. Freshly invaded erythrocytes were thus exposed to 1.4 μM EHop-016 treatment for 20 h and then smeared and analyzed by an immunofluorescence assay (IFA) with an antibody that specifically recognizes Rac1 in its active form (anti-Rac1/GTP). The resulting fluorescence signal was measured both in the EHop-016-treated sample and in the untreated control.
Cytotoxicity was evaluated on Human Microvascular Endothelial Cells (HMEC-1) maintained in MCDB-131 medium supplemented with 10% foetal calf serum (Euroclone), 20mM HEPES and 2 mM L-glutamine. […]
Immuno-fluorescence assay
Synchronous mature schizonts were purified by 60% Percoll gradient and allowed to invade fresh human RBCs for two hours. […] Negative controls without primary antibodies have been performed, resulting in complete absence of fluorescence s ignals. Anti-Rac1/GTP fluorescence signal was measured by using the software ImageJ (the parasitophorous vacuole area was delimited based on the anti-Exp1 signal). At least 40 cells were analyzed in each sample.

[3] = tested on: P. falciparum invasion of red blood cells; test: Parasite invasion assay; type: cell-based, Plasmodium falciparum; conditions: 2.5 μM
Method: Invasion assays were performed as previously described ([17]). Invasion rates were calculated by subtracting the number of schizonts at the end of the assay (6 h postinvasion [hpi]) from the number of schizonts in the time zero (T0) sample, obtaining the number of merozoite-releasing schizonts. The number of new infections was normalized to the number of merozoite-releasing schizonts to obtain the parasitized erythrocyte multiplication rate (PEMR). This value was normalized to the control sample, obtaining the invasion rate value. The results are the means from three independent biological replicates, each performed in triplicate.

[4] = tested on: human mammary epithelial cells; set-up: method as in PMID 25389450, PMID 25594952; conditions: at concentrations lower than 5 μM; cited from earlier work
3D7 immature gametocytes = test: Gametocyte viability luminescence assay, immature gametocytes; type: cell-based, Plasmodium falciparum; conditions: Plasmodium falciparum, 3D7, stage II-III gametocytes, 72 h, read-out: Mean IC50 ± SD, 3D7 immature gametocytes
Method: as §1, §2
strain (wild type or transgenic 3D7elo1-pfs16-CBG99 strain) was cultured in similar conditions, except for 10% naturally clotted Human O+ serum instead of AlbuMaxII and human type O-positive instead of A-positive RBCs. […]
in a standard gas mixture consisting of 1% O2, 5% CO2, 94% N2. Immature (stage II-III) and mature (stage V) gametocytes were obtained as described1. Briefly, cultures were diluted to 0.5% parasitemia at 5% HCT, and the medium was changed daily until parasites were stressed by nutrient deprivation. N-acetylglucosamine (NAG) (Sigma-Aldrich) 50 mM was then added to clear residual asexual parasites: Stage II and III gametocytes were obtained 4 days after NAG addition to the culture, while stage IV and V gametocytes were used 11 to 13 days from NAG addition. Gametocyte stages were routinely checked on Giemsa-stained smears. […]
Drug treated gametocyte cultures were transferred to 96-well black microplates and D-luciferin (1 mM in citrate buffer 0.1 M, pH 5.5) was added at a 1:1 volume ratio. Luminescence measurements were performed after 10 min with 500 ms integration time. Gametocytes treated

Rac1 [5] = molecular target: T1, Rac1; test: G-LISA Rac1 activation assay in uninfected erythrocytes; type: cell-based; set-up: endogenous in cells; host or cells: erythrocytes from whole blood of 7 donors; conditions: 2.5 μM, 2 h
Method: Whole blood collected from 7 donors was washed in RPMI 1640 four times to remove plasma, platelets, and leukocytes. The number of erythrocytes was determined by using a cell counting chamber. Erythrocytes were incubated for 2 h at 37°C with or without 2.5 μM EHop-016 and then washed. In each sample, the Rac1 activation state was measured with the G-LISA Rac1 activation assay luminescence-based biochemical kit (Cytoskeleton). Luminescence intensity was assessed with a BioTek Synergy HT plate reader. These experiments were performed in three biological replicates.

CCn1c2ccccc2c2cc(Nc3ccnc(NCCCN4CCOCC4)n3)ccc21 [EHop-016]
IC50 [1]: 322 ± 28.5 nM
anti-Rac1/GTP fluorescence intensity of parasitophorous vacuoles vs untreated control (Rac1 [2]): significantly lower
RBC invasion efficiency (invasion rate vs untreated control) [3]: did not reduce the RBC invasion efficiency
viability of human mammary epithelial cells [4]: does not affect the viability
IC50 (3D7 immature gametocytes): 740 ± 200 nM
levels of active Rac1 in noninfected erythrocytes (Rac1 [5]): does not inhibit Rac1 in noninfected erythrocytes
